# Species on record: Rattus norvegicus
# Assay: Open TG-GATES - Regimen: Daily Repeat
# Type: toxicity, organism-based, Sprague-Dawley
# Parameters: regimen Daily Repeat, gender Male, age 6 weeks
# Details: in vivo, po, 0 mg/kg, route gavage, dose level Control; for KIDNEY_L / KIDNEY_R / KIDNEY_TOTAL: tissue Kidney; for ALP / ALT / AST / BUN / CRE / Ca / Cl / DBIL / GLC / IP / K / LDH / Na / PL / RALB / TBIL / TC / TG / TP / gamma-GTP: tissue Plasma
compound,measurement,setting,value
O=C1CN(/N=C/c2ccc(-c3ccc([N+](=O)[O-])cc3)o2)C(O)=N1 [DANTROLENE],TERMINAL_BW,"72 h, time 3 day",235.4 g
same,APTT,"72 h, tissue Blood, time 3 day",16.8 s
same,Bas,"72 h, tissue Blood, time 3 day",0%
same,Eos,"72 h, tissue Blood, time 3 day",1%
same,Fbg,"72 h, tissue Blood, time 3 day",224.8 mg/dL
same,Hb,"72 h, tissue Blood, time 3 day",13.3 g/dL
same,Lym,"72 h, tissue Blood, time 3 day",77%
same,MCH,"72 h, tissue Blood, time 3 day",21.6 pg
same,MCHC,"72 h, tissue Blood, time 3 day",33.6%
same,MCV,"72 h, tissue Blood, time 3 day",64.2 fL
same,Mono,"72 h, tissue Blood, time 3 day",6.6%
same,Plat,"72 h, tissue Blood, time 3 day",128.8 x10_4/uL
same,RBC,"72 h, tissue Blood, time 3 day",618.2 x10_4/ul
same,Ret,"72 h, tissue Blood, time 3 day",6.6%
same,WBC,"72 h, tissue Blood, time 3 day",113.2 x10_2/uL
same,KIDNEY_L,"72 h, time 3 day",1.1 g
same,KIDNEY_R,"72 h, time 3 day",1.1 g
same,KIDNEY_TOTAL,"72 h, time 3 day",2.2 g
same,ALP,"72 h, time 3 day",842.8 IU/L
same,ALT,"72 h, time 3 day",34 IU/L
same,AST,"72 h, time 3 day",62.8 IU/L
same,BUN,"72 h, time 3 day",19.2 mg/dL
same,CRE,"72 h, time 3 day",0.6 mg/dL
same,Ca,"72 h, time 3 day",10.9 mg/dL
same,Cl,"72 h, time 3 day",104 meq/L
same,DBIL,"72 h, time 3 day",0.004 mg/dL
same,GLC,"72 h, time 3 day",200.6 mg/dL
same,IP,"72 h, time 3 day",7.5 mg/dL
same,K,"72 h, time 3 day",4.7 meq/L
same,LDH,"72 h, time 3 day",85 IU/L
same,Na,"72 h, time 3 day",140.2 meq/L
same,PL,"72 h, time 3 day",158.6 mg/dL
same,RALB,"72 h, time 3 day",3.8 g/dL
same,TBIL,"72 h, time 3 day",0.3 mg/dL
same,TC,"72 h, time 3 day",78.4 mg/dL
same,TG,"72 h, time 3 day",114.8 mg/dL
same,TP,"72 h, time 3 day",5.8 g/dL
same,gamma-GTP,"72 h, time 3 day",1 IU/L
same,TERMINAL_BW,"[…], time 7 day",269.1 g
same,TERMINAL_BW,"[…], time 14 day",300.9 g
same,TERMINAL_BW,"[…], time 28 day",379.1 g
same,APTT,"[…], tissue Blood, time 7 day",16.9 s
same,Bas,"[…], tissue Blood, time 7 day",0%
same,Eos,"[…], tissue Blood, time 7 day",1%
same,Fbg,"[…], tissue Blood, time 7 day",213 mg/dL
same,Hb,"[…], tissue Blood, time 7 day",14 g/dL
same,Lym,"[…], tissue Blood, time 7 day",78.2%
same,MCH,"[…], tissue Blood, time 7 day",21 pg
same,MCHC,"[…], tissue Blood, time 7 day",33.6%
same,MCV,"[…], tissue Blood, time 7 day",62.7 fL
same,Mono,"[…], tissue Blood, time 7 day",7.4%
same,Plat,"[…], tissue Blood, time 7 day",126.8 x10_4/uL
same,RBC,"[…], tissue Blood, time 7 day",666.4 x10_4/ul
same,Ret,"[…], tissue Blood, time 7 day",5.1%
same,WBC,"[…], tissue Blood, time 7 day",106.4 x10_2/uL
same,APTT,"[…], tissue Blood, time 14 day",17.6 s
same,Bas,"[…], tissue Blood, time 14 day",0%
same,Eos,"[…], tissue Blood, time 14 day",0.4%
same,Fbg,"[…], tissue Blood, time 14 day",201.8 mg/dL
same,Hb,"[…], tissue Blood, time 14 day",14.8 g/dL
same,Lym,"[…], tissue Blood, time 14 day",82.6%
same,MCH,"[…], tissue Blood, time 14 day",20.3 pg
same,MCHC,"[…], tissue Blood, time 14 day",33.3%
same,MCV,"[…], tissue Blood, time 14 day",61.1 fL
same,Mono,"[…], tissue Blood, time 14 day",3.8%
same,Plat,"[…], tissue Blood, time 14 day",112.9 x10_4/uL
same,RBC,"[…], tissue Blood, time 14 day",728.6 x10_4/ul
same,Ret,"[…], tissue Blood, time 14 day",3.7%
same,WBC,"[…], tissue Blood, time 14 day",110.6 x10_2/uL
same,APTT,"[…], tissue Blood, time 28 day",18.6 s
same,Bas,"[…], tissue Blood, time 28 day",0%
same,Eos,"[…], tissue Blood, time 28 day",1.4%
same,Fbg,"[…], tissue Blood, time 28 day",217.6 mg/dL
same,Hb,"[…], tissue Blood, time 28 day",15.6 g/dL
same,Ht,"[…], tissue Blood, time 28 day",46.2%
same,Lym,"[…], tissue Blood, time 28 day",84%
same,MCH,"[…], tissue Blood, time 28 day",19.5 pg
same,MCHC,"[…], tissue Blood, time 28 day",33.9%
same,MCV,"[…], tissue Blood, time 28 day",57.5 fL
same,Mono,"[…], tissue Blood, time 28 day",4.6%
same,Plat,"[…], tissue Blood, time 28 day",117 x10_4/uL
same,RBC,"[…], tissue Blood, time 28 day",803.2 x10_4/ul
same,Ret,"[…], tissue Blood, time 28 day",2.8%
same,WBC,"[…], tissue Blood, time 28 day",103.3 x10_2/uL
same,KIDNEY_L,"[…], time 7 day",1.2 g
same,KIDNEY_R,"[…], time 7 day",1.2 g
same,KIDNEY_TOTAL,"[…], time 7 day",2.4 g
same,KIDNEY_L,"[…], time 14 day",1.2 g
same,KIDNEY_R,"[…], time 14 day",1.3 g
same,KIDNEY_TOTAL,"[…], time 14 day",2.5 g
same,KIDNEY_L,"[…], time 28 day",1.4 g
same,KIDNEY_R,"[…], time 28 day",1.3 g
same,KIDNEY_TOTAL,"[…], time 28 day",2.7 g
same,ALP,"[…], time 7 day",931.4 IU/L
same,ALT,"[…], time 7 day",33.4 IU/L
same,AST,"[…], time 7 day",64.2 IU/L
same,BUN,"[…], time 7 day",18.2 mg/dL
same,CRE,"[…], time 7 day",0.5 mg/dL
same,Ca,"[…], time 7 day",10.7 mg/dL
same,Cl,"[…], time 7 day",106.8 meq/L
same,DBIL,"[…], time 7 day",0.002 mg/dL
same,GLC,"[…], time 7 day",204 mg/dL
same,IP,"[…], time 7 day",7.2 mg/dL
same,K,"[…], time 7 day",5.1 meq/L
same,LDH,"[…], time 7 day",76.6 IU/L
same,Na,"[…], time 7 day",138.6 meq/L
same,PL,"[…], time 7 day",164.2 mg/dL
same,RALB,"[…], time 7 day",3.8 g/dL
same,TBIL,"[…], time 7 day",0.3 mg/dL
same,TC,"[…], time 7 day",79.6 mg/dL
same,TG,"[…], time 7 day",138.8 mg/dL
same,TP,"[…], time 7 day",5.8 g/dL
same,gamma-GTP,"[…], time 7 day",1.4 IU/L
same,ALP,"[…], time 14 day",833.2 IU/L
same,ALT,"[…], time 14 day",31.4 IU/L
same,AST,"[…], time 14 day",61.6 IU/L
same,BUN,"[…], time 14 day",17.8 mg/dL
same,CRE,"[…], time 14 day",0.6 mg/dL
same,Ca,"[…], time 14 day",10.5 mg/dL
same,Cl,"[…], time 14 day",105.4 meq/L
same,DBIL,"[…], time 14 day",0.012 mg/dL
same,GLC,"[…], time 14 day",203.6 mg/dL
same,IP,"[…], time 14 day",7.5 mg/dL
same,K,"[…], time 14 day",4.5 meq/L
same,LDH,"[…], time 14 day",82.6 IU/L
same,Na,"[…], time 14 day",141.8 meq/L
same,PL,"[…], time 14 day",139.2 mg/dL
same,RALB,"[…], time 14 day",3.9 g/dL
same,TBIL,"[…], time 14 day",0.3 mg/dL
same,TC,"[…], time 14 day",62 mg/dL
same,TG,"[…], time 14 day",85.8 mg/dL
same,TP,"[…], time 14 day",5.9 g/dL
same,gamma-GTP,"[…], time 14 day",0.8 IU/L
same,ALP,"[…], time 28 day",628.6 IU/L
same,ALT,"[…], time 28 day",30.6 IU/L
same,AST,"[…], time 28 day",50.8 IU/L
same,BUN,"[…], time 28 day",18 mg/dL
same,CRE,"[…], time 28 day",0.6 mg/dL
same,Ca,"[…], time 28 day",10.3 mg/dL
same,Cl,"[…], time 28 day",106.8 meq/L
same,DBIL,"[…], time 28 day",0.016 mg/dL
same,GLC,"[…], time 28 day",187.8 mg/dL
same,IP,"[…], time 28 day",6.5 mg/dL
same,K,"[…], time 28 day",4.4 meq/L
same,LDH,"[…], time 28 day",83.2 IU/L
same,Na,"[…], time 28 day",140 meq/L
same,PL,"[…], time 28 day",143.4 mg/dL
same,RALB,"[…], time 28 day",3.8 g/dL
same,TBIL,"[…], time 28 day",0.3 mg/dL
same,TC,"[…], time 28 day",69.6 mg/dL
same,TG,"[…], time 28 day",127.2 mg/dL
same,TP,"[…], time 28 day",6.1 g/dL
